From EP0085842A1, “Antimycosic agents” (BAYER AG, priority 1982, dated 1983)
Converted amounts (≈) assume the structure as drawn.

How the values were obtained:
[1] = system: Trichophyton mentagrophytes; experiment: Antimycotic in-vivo activity (local) in experimental guinea pig trichophytosis; parameters: species or system Meerschweinchen; key: +++++: sehr gute Wirkung = keine Infektionszeichen am 12.-15.Tag p.i.; ++++: gute Wirkung = geringe Rötung, vereinzelt Schuppen; +++: Wirkung = Rötung, Schuppung, ohne Haarausfall; ++: schwache Wirkung = Rötung, Schuppung, Haarausfall; +: Spur Wirkung = flächiger Haarausfall, entzündliche Hautreaktion
[2] = system: Trichophyton mentagr.; experiment: Antimycotic in-vitro activity, serial dilution test (MIC); format: cell-based, Trichophyton mentagrophytes; conditions: Sabouraud's milieu d'epreuve, 20°C, 96 h, inoculum 5 x 10^4 Keime/ml, read-out: MHK-Werte in γ/ml Nährmedium Trichophyton mentagr.
Description: (§1) Versuchsbeschreibung: • Die in-vitro-Prüfungen wurden im Reihenverdünnungstest mit Keiminokula von durchschnittlich 5 x 10^4 Keimen/ml Substrat durchgeführt. Als Nährmedium dienten • a) für Dermatophyten und Schimmelpilze: Sabouraud's milieu d'epreuve • b) für Hefen: • Fleischextrakt-Traubenzucker-Bouillon.
(§2) Die Bebrütungstemperatur betrug 20°C, die Bebrütungsdauer lag bei 24 bis 96 Stunden bei Hefen und 96 Stunden bei Dermatophyten und Schimmelpilzen.

[3] = system: Candida-Zellen; experiment: Antimycotic in-vivo activity (oral) in mouse candidosis; parameters: species or system Mäuse vom Typ SPF-CF1; key to Wirkung: +++++: sehr gute Wirkung = 90 % Überlebende am 6.Tag p.i.; ++++: gute Wirkung = 80 % Überlebende am 6.Tag p.i.; +++: Wirkung = 60 % Überlebende am 6.Tag p.i.; ++: schwache Wirkung = 40 % Überlebende am 6.Tag p.i.; +: Spur Wirkung = unter 40 % Überlebende am 6.Tag p.i.; k.W.: keine Wirkung; conditions: for Wirkung: mice infected i.v. with Candida, oral 50 - 100 mg/kg one hour before and seven hours after infection, survivors on day 6 p.i.; for Wirkung compared with known compounds (A), (B), (C) and (D): mouse candidosis, oral 50 - 100 mg/kg
Description: Mäuse vom Typ SPF-CF1 wurden intravenös mit 1 - 2 x 10^6 logarithmisch wachsenden Candida-Zellen, die in physiologischer Kochsalzlösung suspendiert werden, infiziert. Eine Stunde vor und sieben Sunden nach der Infektion werden die Tiere mit jeweils 50 - 100 mg/kg Körpergewicht der Präparate oral behandelt.
Unbehandelte Tiere starben 3 bis 6 Tage post infektionem. Die Überlebensrate am 6. Tag post infektionem betrug bei unbehandelten Kontrolltieren etwa 5 %.
+++++ = sehr gute Wirkung = 90 % Überlebende am 6.Tag p.i. ++++ = gute Wirkung = 80 % Überlebende am 6.Tag p.i. +++ = Wirkung = 60 % Überlebende am 6.Tag p.i. ++ = schwache Wirkung = 40 % Überlebende am 6.Tag p.i. + = Spur Wirkung = unter 40 % Überlebende am 6.Tag p.i. k.W. = keine Wirkung

[4] = system: Aspergillus fumigatus; experiment: Antimycotic in-vitro activity, serial dilution test (MIC); format: cell-based; conditions: Sabouraud's milieu d'epreuve, 20°C, 96 h, inoculum 5 x 10^4 Keime/ml, read-out: MHK-Werte in γ/ml Nährmedium Aspergillus fumigatus
Description: as §1, §2

[5] = system: Torulopsis glabrata; experiment: as above; format: cell-based; conditions: Nakaseomyces glabratus; Fleischextrakt-Traubenzucker-Bouillon, 20°C, 24 to 96 h, inoculum 5 x 10^4 Keime/ml; read-out: MHK-Werte in γ/ml Nährmedium Torulopsis glabrata
Description: as §1, §2

[6] = system: Candida albicans; experiment: as above; format: cell-based; conditions: Fleischextrakt-Traubenzucker-Bouillon, 20°C, 24 to 96 h, inoculum 5 x 10^4 Keime/ml, read-out: MHK-Werte in γ/ml Nährmedium Candida albicans
Description: as §1, §2

[7] = system: Microsporum canis; experiment: as above; format: cell-based; conditions: Sabouraud's milieu d'epreuve, 20°C, 96 h, inoculum 5 x 10^4 Keime/ml, read-out: MHK-Werte in γ/ml Nährmedium Microsporum canis
Description: as §1, §2

[8] = local treatment, trichophytosis model
[9] = local, 1 x daily from day 3 p.i., 15 %ige Lösung in Dimethylsulfoxid:Glycerin = 1:4, infection signs day 12-15 p.i.

Compound | MIC [2] [µg/mL] | MIC [4] [µg/mL] | MIC [5] [µg/mL] | MIC [6] [µg/mL] | MIC [7] [µg/mL] | Wirkung [1, 8] | Wirkung [1, 9] | Wirkung [3] | Wirkung compared with known compounds (A), (B), (C) and (D) [3]
Cc1cc(Cl)ccc1OCC(O)(Cn1cncn1)C(C)(C)CF (centres unmarked) [Beispiel 8] | < 1 | 4 (≈ 11.7 µM) | 2 (≈ 5.85 µM) | < 1 | < 1 | Wirkung bis gute Wirkung | +++ | +++ (Wirkung = 60 % Überlebende am 6.Tag p.i.) | bessere Wirkung
CC(C)(CF)C(O)(COc1ccc(Cl)cc1Cl)Cn1cncn1 (centres unmarked) [Beispiel 9] | < 1 | 8 (≈ 22.1 µM) | 4 (≈ 11 µM) | 4 (≈ 11 µM) | 2 (≈ 5.52 µM) | Wirkung bis gute Wirkung | ++++ | +++ (Wirkung = 60 % Überlebende am 6.Tag p.i.) | bessere Wirkung
CC(CF)(CF)C(O)(CCc1ccc(Cl)cc1)Cn1ccnc1 (centres unmarked) [Beispiel 37] | 4 (≈ 11.7 µM) | 2 (≈ 5.83 µM) | 2 (≈ 5.83 µM) | 4 (≈ 11.7 µM) | 16 (≈ 46.7 µM) | – | – | ++++ (gute Wirkung = 80 % Überlebende am 6.Tag p.i.) | bessere Wirkung
CC(CF)(CF)C(O)(COc1ccc(Cl)cc1)Cn1ccnc1 (centres unmarked) [Beispiel 31] | – | – | – | – | – | Wirkung bis gute Wirkung | +++ | ++++ (gute Wirkung = 80 % Überlebende am 6.Tag p.i.) | bessere Wirkung
C=CC(C)(C)C(O)(COc1ccc(Cl)cc1Cl)Cn1ccnc1 (centres unmarked) [Beispiel 39] | < 1 | 32 (≈ 90.1 µM) | < 1 | 2 (≈ 5.63 µM) | 16 (≈ 45 µM) | – | – | ++ (schwache Wirkung = 40 % Überlebende am 6.Tag p.i.) | bessere Wirkung

Continued, in another order:

MIC [2] [µg/mL] | MIC [4] [µg/mL] | MIC [5] [µg/mL] | MIC [6] [µg/mL] | MIC [7] [µg/mL] | Compound | Wirkung [1, 8] | Wirkung [1, 9] | Wirkung [3] | Wirkung compared with known compounds (A), (B), (C) and (D) [3]
< 1 | 4 (≈ 13.1 µM) | 8 (≈ 26.2 µM) | 4 (≈ 13.1 µM) | 8 (≈ 26.2 µM) | C=CC(C)(C)C(O)(COc1ccc(F)cc1)Cn1cncn1 (centres unmarked) [Beispiel 24] | – | – | ++ (schwache Wirkung = 40 % Überlebende am 6.Tag p.i.) | bessere Wirkung
4 (≈ 13.8 µM) | 32 (≈ 111 µM) | > 64 | 32 (≈ 111 µM) | 4 (≈ 13.8 µM) | Cc1ccccc1OCC(O)(Cn1cncn1)C(C)(C)C (centres unmarked) [(B), reference compound] | – | – | k.W. | –
< 1 | 4 (≈ 11.2 µM) | 4 (≈ 11.2 µM) | < 1 | 8 (≈ 22.5 µM) | C=CC(C)(C)C(O)(COc1ccc(Cl)cc1Cl)Cn1cncn1 (centres unmarked) [Beispiel 23] | – | – | + (Spur Wirkung = unter 40 % Überlebende am 6.Tag p.i.) | bessere Wirkung
< 1 | < 1 | 2 (≈ 6.14 µM) | < 1 | < 1 | CC(C)(C)C(O)(CSc1ccc(Cl)cc1)Cn1cncn1 (centres unmarked) [Beispiel 3, 2-(4-Chlorphenylthiomethyl)-3,3-dimethyl-1-(1,2,4-triazol-1-yl)-butan-2-ol] | – | – | ++++ (gute Wirkung = 80 % Überlebende am 6.Tag p.i.) | bessere Wirkung
< 1 | < 1 | < 1 | < 1 | 2 (≈ 5.29 µM) | CC(C)(CF)C(O)(CSc1ccc(Cl)c(Cl)c1)Cn1cncn1 (centres unmarked) [Beispiel 12] | – | – | ++++ (gute Wirkung = 80 % Überlebende am 6.Tag p.i.) | bessere Wirkung
2 (≈ 5.3 µM) | 8 (≈ 21.2 µM) | 4 (≈ 10.6 µM) | < 1 | 4 (≈ 10.6 µM) | CC(CF)(CF)C(O)(CCc1ccc(Cl)cc1Cl)Cn1ccnc1 (centres unmarked) [Beispiel 36] | – | – | ++++ (gute Wirkung = 80 % Überlebende am 6.Tag p.i.) | bessere Wirkung
8 (≈ 25.9 µM) | 32 (≈ 104 µM) | 2 (≈ 6.48 µM) | < 1 | 16 (≈ 51.8 µM) | CC(C)(C)C(O)(COc1ccc(Cl)cc1)Cn1ccnc1 (centres unmarked) [(A), reference compound] | – | – | k.W. | –
